Results reported in PMC5951806, “Rapid labelling and covalent inhibition of intracellular native proteins using ligand-directed N-acyl-N-alkyl sulfonamide” (Nature Communications, 2018).

Columns and labels:
Experiment in all cases: TMT LC-MSMS of 11-labelled proteins
Format in all cases: cell-based
[1] = molecular target: T1, dehydrogenase/reductase SDR family member 2, mitochondrial (DHRS2) (Homo sapiens, UniProt Q13268)
T1 sequence (Q13268 24-280): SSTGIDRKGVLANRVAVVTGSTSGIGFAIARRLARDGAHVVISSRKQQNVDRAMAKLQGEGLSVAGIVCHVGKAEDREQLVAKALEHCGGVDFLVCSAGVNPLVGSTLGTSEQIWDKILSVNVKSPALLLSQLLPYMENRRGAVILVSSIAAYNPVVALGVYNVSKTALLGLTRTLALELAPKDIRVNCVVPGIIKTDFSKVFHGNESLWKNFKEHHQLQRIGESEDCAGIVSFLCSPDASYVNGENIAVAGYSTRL
Text: (§1) The labelled proteins were enriched by immunoprecipitation with an anti-fluorescein antibody and tryptically digested in gel. Digested peptides were modified with Light- (L-), Medium- (M-), or Heavy- (H-) TMT reagent for samples treated with 11, 11 with PU-H71 (as competitive condition), or DMSO (vehicle), respectively, and mixed in a 1:1:1 ratio for LC-MSMS analysis. We performed three experimental replicates, in which proteins detected and quantified at least twice were selected as identified proteins. According to the related approach of Cravatt et al[44], the proteins having L/H (11/DMSO) ratios >5 were defined as 11-labelled proteins. […] On the basis of these criteria, we identified 6 proteins that react with 11, including three ligand-specific targets (Hsp90α (HSP90AA1), Hsp90β (HSP90AB1), and Grp94 (HSP90B1)) and three off-targets (Trifunctional enzyme subunit α (HADHA), Tubulin-α (TUBA1B), and ADP/ATP translocase 3 (SLC25A6)) (Fig. 5d, e and Supplementary Data 1). […] Grp94, a HSP90 isomer, was previously reported to be a PU-H71 specific target. TRAP-1, another Hsp90 isomer that can bind PU-H71, on the other hand, was not identified as 11-target by our criteria.
(§2) SKBR3 human breast cancer cells (2.0 × 10^6 cells) were seeded on a 10 cm dish and cultured for 3 days in McCoy’s 5A in a 5% CO2 humidified chamber at 37 °C. […] As competitive experiments, the labelling was conducted in the presence of PU-H71 (10 µM). After labelling, the cells were washed twice with PBS, and lysed with RIPA buffer. […] The supernatant was mixed with chilled acetone and incubated overnight at −80 °C. The protein precipitates were solubilized by sonication in 1 mL of RIPA buffer containing 1% SDS, and then 10-fold diluted with RIPA buffer to reduce SDS concentration to c.a. 0.1%. The protein solution (containing 1 mg of protein) was mixed with Protein G Sepharose 4 Fast Flow (GE Healthcare) and rotated at 4 °C for 1 h. After removal of the beads, the remaining supernatant was mixed with anti-fluorescein antibody (Abcam, ab19491, 7:10000) and rotated at 4 °C for 1 h, followed by addition of fresh Protein G Sepharose 4 Fast Flow and further incubation at 4 °C for 4 h. The beads were washed five times with RIPA buffer and once with PBS. Proteins were eluted from the beads by addition of 2 × sample buffer containing 100 mM DTT and boiling at 95 °C for 5 min. The samples were subjected to a 7.5% SDS–PAGE gel (Mini-PROTEAN TGX Gels, BioRad), and electrophoresed as the migration distance of dye front is about 10 mm. Each lane was excised (height, 10 mm), and treated with a 47.5% methanol / 47.5% pure water / 5% acetic acid for 20 min, a 50% methanol / 50% pure water for 10 min, and in pure water for 10 min. The gel pieces were dehydrated with 100% acetonitrile, and then swelled with 200 μL of 100 mM TEAB (triethylamine bicarbonate) buffer containing 10 mM DTT and heated at 56 °C for 30 min. The solutions were replaced with 200 µL of 100 mM TEAB buffer containing 55 mM iodoacetamide and incubated for 45 min in the dark. The gel pieces were washed with 100 mM TEAB buffer and dehydrated in acetonitrile. This step was repeated once. The gels were reswelled in 100 mM TEAB buffer containing 10 ng/μL Sequencing Grade Trypsin (Promega) and incubated overnight at 37 °C. To the gels, 50 μL of an extraction solution (50% acetonitrile, 0.1% TFA) was added. After 10 min incubation, the supernatants were collected to new tubes, and this process was repeated twice. Extracted peptides were dried in vacuo and reconstituted with 25 μL of 100 mM TEAB buffer.

[2] = molecular target: Pyruvate kinase PKM (PKM) (Homo sapiens, UniProt P14618)
Pyruvate kinase PKM (PKM), sequence (P14618 whole entry): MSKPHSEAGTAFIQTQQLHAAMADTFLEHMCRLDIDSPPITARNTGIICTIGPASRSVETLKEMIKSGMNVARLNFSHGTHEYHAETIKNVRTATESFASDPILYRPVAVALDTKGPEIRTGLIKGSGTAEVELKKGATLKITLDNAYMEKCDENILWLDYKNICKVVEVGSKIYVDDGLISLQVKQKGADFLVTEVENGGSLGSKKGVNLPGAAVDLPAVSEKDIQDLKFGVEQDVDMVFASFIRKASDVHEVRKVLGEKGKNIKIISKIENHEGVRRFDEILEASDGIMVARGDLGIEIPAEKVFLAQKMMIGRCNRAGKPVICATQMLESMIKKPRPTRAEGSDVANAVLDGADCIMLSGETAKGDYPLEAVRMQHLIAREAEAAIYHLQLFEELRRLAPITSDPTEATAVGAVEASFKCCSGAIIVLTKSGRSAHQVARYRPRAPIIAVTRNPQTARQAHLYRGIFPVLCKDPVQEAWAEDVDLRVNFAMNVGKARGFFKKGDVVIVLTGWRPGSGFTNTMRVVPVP
Text: as §1, §2

Desmoplakin (DSP) = Desmoplakin (DSP) (Homo sapiens, UniProt P15924)
Desmoplakin (DSP), sequence (P15924 whole entry): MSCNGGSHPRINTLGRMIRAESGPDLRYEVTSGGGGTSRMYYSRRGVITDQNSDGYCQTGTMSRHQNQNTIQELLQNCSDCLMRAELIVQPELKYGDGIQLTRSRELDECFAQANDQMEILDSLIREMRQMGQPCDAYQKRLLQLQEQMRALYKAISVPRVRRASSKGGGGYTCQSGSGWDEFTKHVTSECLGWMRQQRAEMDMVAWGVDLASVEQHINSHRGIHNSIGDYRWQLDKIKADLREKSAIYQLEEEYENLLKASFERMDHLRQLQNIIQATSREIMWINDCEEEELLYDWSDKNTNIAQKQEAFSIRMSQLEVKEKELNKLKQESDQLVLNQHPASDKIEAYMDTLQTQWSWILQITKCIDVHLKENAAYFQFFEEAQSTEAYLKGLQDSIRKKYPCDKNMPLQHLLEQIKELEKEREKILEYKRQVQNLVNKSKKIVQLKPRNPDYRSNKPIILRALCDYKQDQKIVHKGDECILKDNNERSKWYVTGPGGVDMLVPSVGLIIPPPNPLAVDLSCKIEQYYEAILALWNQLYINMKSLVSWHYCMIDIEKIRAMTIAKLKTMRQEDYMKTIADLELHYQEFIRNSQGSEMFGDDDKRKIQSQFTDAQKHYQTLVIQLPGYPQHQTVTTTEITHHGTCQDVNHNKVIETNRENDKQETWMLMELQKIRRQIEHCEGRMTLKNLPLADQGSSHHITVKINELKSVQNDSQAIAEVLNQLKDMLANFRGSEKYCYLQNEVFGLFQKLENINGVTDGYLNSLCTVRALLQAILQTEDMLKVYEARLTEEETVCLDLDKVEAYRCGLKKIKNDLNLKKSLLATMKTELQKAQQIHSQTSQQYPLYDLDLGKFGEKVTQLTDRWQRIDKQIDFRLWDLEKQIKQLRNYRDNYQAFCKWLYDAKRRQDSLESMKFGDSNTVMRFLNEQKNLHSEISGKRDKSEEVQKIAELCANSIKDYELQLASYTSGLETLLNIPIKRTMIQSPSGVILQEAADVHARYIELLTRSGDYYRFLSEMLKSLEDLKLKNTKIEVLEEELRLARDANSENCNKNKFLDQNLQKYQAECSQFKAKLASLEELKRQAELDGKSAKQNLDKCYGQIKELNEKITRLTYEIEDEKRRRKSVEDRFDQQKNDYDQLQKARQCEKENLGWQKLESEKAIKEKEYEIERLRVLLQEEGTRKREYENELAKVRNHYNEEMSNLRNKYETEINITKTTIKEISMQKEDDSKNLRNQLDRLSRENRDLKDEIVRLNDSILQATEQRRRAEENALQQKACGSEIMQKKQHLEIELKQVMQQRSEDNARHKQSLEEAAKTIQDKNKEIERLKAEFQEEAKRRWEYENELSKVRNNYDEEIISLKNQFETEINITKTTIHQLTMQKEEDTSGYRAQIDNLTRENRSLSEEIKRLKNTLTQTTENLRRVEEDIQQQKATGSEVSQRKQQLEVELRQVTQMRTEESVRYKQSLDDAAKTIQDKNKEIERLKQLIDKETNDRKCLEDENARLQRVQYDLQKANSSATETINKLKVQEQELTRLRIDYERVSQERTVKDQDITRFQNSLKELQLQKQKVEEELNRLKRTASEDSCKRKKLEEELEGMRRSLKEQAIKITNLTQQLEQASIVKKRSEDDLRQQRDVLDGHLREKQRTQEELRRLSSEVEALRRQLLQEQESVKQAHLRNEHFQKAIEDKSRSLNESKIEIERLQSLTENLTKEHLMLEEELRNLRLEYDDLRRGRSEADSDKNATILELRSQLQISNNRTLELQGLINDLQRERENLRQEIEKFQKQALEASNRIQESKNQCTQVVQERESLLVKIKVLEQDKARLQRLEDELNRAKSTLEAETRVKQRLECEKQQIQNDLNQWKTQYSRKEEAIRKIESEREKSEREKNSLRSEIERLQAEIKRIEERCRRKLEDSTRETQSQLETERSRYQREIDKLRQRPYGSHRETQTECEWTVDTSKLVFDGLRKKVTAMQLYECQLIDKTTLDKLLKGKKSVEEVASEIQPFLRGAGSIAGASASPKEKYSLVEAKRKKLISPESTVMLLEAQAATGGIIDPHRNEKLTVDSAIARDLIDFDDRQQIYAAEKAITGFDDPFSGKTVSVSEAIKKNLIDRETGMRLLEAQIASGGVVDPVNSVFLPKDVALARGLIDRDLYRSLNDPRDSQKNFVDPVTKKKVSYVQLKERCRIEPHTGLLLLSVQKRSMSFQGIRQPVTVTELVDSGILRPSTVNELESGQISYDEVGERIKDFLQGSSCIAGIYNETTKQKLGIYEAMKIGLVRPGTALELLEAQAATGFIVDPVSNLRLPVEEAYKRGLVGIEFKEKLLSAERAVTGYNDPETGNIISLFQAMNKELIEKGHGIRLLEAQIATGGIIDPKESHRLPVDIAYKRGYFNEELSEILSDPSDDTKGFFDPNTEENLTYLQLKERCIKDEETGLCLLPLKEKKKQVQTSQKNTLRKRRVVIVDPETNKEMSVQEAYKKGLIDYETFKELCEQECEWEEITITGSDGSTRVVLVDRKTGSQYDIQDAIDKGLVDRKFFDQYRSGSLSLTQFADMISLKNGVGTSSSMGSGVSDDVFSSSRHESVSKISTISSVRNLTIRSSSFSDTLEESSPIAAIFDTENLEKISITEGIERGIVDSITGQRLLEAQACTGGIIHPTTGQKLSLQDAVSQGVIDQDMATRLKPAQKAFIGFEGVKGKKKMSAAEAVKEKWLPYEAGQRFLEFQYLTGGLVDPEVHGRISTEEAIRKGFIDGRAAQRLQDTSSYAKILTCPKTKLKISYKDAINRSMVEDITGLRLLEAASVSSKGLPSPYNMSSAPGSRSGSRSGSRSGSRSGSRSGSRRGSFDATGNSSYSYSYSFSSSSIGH
Text: as §1, §2

[3] = molecular target: Heat shock cognate 71 kDa protein (HSPA8) (Homo sapiens, UniProt P11142)
Heat shock cognate 71 kDa protein (HSPA8), sequence (P11142 whole entry): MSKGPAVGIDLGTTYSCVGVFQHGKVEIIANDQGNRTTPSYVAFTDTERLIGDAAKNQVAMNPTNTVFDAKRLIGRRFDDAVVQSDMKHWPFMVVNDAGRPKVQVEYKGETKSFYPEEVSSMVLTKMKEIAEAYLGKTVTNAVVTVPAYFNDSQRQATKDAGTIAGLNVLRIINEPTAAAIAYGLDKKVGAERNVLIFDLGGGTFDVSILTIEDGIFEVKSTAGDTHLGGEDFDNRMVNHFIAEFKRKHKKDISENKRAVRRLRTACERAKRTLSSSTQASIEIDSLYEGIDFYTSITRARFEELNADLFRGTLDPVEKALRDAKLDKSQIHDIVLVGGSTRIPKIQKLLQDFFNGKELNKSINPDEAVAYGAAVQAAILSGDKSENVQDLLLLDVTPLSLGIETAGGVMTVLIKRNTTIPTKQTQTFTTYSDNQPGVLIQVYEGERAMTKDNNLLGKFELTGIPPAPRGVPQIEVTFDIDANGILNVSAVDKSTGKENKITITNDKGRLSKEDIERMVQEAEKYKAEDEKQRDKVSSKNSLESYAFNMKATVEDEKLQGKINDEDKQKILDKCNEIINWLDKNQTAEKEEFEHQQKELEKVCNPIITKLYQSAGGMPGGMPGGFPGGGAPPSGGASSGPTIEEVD
Text: as §1, §2

[4] = sheet Exp1, SKBR3 cells, 11 0.5 µM 3 h vs DMSO
[5] = sheet Exp1, SKBR3 cells, 11 0.5 µM 3 h vs with PU-H71 10 µM
[6] = sheet Merged, SKBR3 cells, 11 0.5 µM 3 h vs DMSO
[7] = sheet Merged, SKBR3 cells, 11 0.5 µM 3 h vs with PU-H71 10 µM

Abundance Ratio: (11) / (11 with PU-H71) ([1]; Exp3, DHRS2): 0.644
Abundance Ratio: (11) / (DMSO) ([1]; Exp3, DHRS2): 2.859
Abundances (Grouped): 11 ([1]; Exp3, DHRS2): 223.6
Abundances (Grouped): 11 with PU-H71 ([1]; Exp3, DHRS2): 347.1
Abundance Ratio: (11) / (DMSO) [1, 4]: 3.162
Abundance Ratio: (11) / (11 with PU-H71) [1, 5]: 0.783
Abundance Ratio: (11) / (11 with PU-H71) ([1]; sheet Exp2, DHRS2): 0.6
Abundance Ratio: (11) / (DMSO) ([1]; sheet Exp2, DHRS2): 3.132
Abundances (Grouped): 11 ([1]; sheet Exp2, DHRS2): 156.3
Abundances (Grouped): 11 with PU-H71 ([1]; sheet Exp2, DHRS2): 260.6
Abundance Ratio: (11) / (DMSO) [1, 6]: 2.859
Abundance Ratio: (11) / (11 with PU-H71) [1, 7]: 0.644
Abundance Ratio: (11) / (11 with PU-H71) ([2]; Exp3, PKM): 1.148
Abundance Ratio: (11) / (DMSO) ([2]; Exp3, PKM): 2.441
Abundances (Grouped): 11 ([2]; Exp3, PKM): 100.1
Abundances (Grouped): 11 with PU-H71 ([2]; Exp3, PKM): 87.2
Abundance Ratio: (11) / (DMSO) [2, 4]: 3.506
Abundance Ratio: (11) / (11 with PU-H71) [2, 5]: 0.917
Abundance Ratio: (11) / (11 with PU-H71) ([2]; sheet Exp2, PKM): 0.916
Abundance Ratio: (11) / (DMSO) ([2]; sheet Exp2, PKM): 2.005
Abundances (Grouped): 11 ([2]; sheet Exp2, PKM): 121.5
Abundances (Grouped): 11 with PU-H71 ([2]; sheet Exp2, PKM): 132.6
Abundance Ratio: (11) / (DMSO) [2, 6]: 3.4
Abundance Ratio: (11) / (11 with PU-H71) [2, 7]: 0.922
Abundance Ratio: (11) / (11 with PU-H71) (Desmoplakin (DSP); Exp3, DSP): 0.922
Abundance Ratio: (11) / (DMSO) (Desmoplakin (DSP); Exp3, DSP): 1.358
Abundances (Grouped): 11 (Desmoplakin (DSP); Exp3, DSP): 44.8
Abundances (Grouped): 11 with PU-H71 (Desmoplakin (DSP); Exp3, DSP): 48.6
Abundance Ratio: (11) / (11 with PU-H71) (Desmoplakin (DSP); sheet Exp2, DSP): 1.054
Abundance Ratio: (11) / (DMSO) (Desmoplakin (DSP); sheet Exp2, DSP): 1.067
Abundances (Grouped): 11 (Desmoplakin (DSP); sheet Exp2, DSP): 43.1
Abundances (Grouped): 11 with PU-H71 (Desmoplakin (DSP); sheet Exp2, DSP): 40.9
Abundance Ratio: (11) / (DMSO) (Desmoplakin (DSP); [6]): 1.203
Abundance Ratio: (11) / (11 with PU-H71) (Desmoplakin (DSP); [7]): 0.986
Abundance Ratio: (11) / (11 with PU-H71) ([3]; Exp3, HSPA8): 1.213
Abundance Ratio: (11) / (DMSO) ([3]; Exp3, HSPA8): 3.219
Abundances (Grouped): 11 ([3]; Exp3, HSPA8): 407.2
Abundances (Grouped): 11 with PU-H71 ([3]; Exp3, HSPA8): 335.6
Abundance Ratio: (11) / (DMSO) [3, 4]: 3.395
Abundance Ratio: (11) / (11 with PU-H71) [3, 5]: 1.175
Abundance Ratio: (11) / (11 with PU-H71) ([3]; sheet Exp2, HSPA8): 1.256
Abundance Ratio: (11) / (DMSO) ([3]; sheet Exp2, HSPA8): 4.511
Abundances (Grouped): 11 ([3]; sheet Exp2, HSPA8): 471.4
Abundances (Grouped): 11 with PU-H71 ([3]; sheet Exp2, HSPA8): 375.4
Abundance Ratio: (11) / (DMSO) [3, 6]: 3.381
Abundance Ratio: (11) / (11 with PU-H71) [3, 7]: 1.191
SMILES: CC(=O)Oc1ccc2c(c1)Oc1cc(OC(C)=O)ccc1C21OC(=O)c2cc(C(=O)NCCOCCOCCNC(=O)CCCC(=O)N(CC#N)S(=O)(=O)c3ccc(C(=O)NCCCn4c(Sc5cc6c(cc5I)OCO6)nc5c(N)ncnc54)cc3)ccc21 [compound 11]
